The values below come from patent publication US20230165846A1, “HETEROCYCLIC GLP-1 AGONISTS” (Gasherbrum Bio, Inc., priority 2020, published 2023).

The structures appear in SMILES notation.

The target of assay [1] is T1, GLP-1 Receptor (Homo sapiens, UniProt P43220). Description: GLP-1R agonist cAMP stimulation assay, Method 2 (HDB HEK293/GLP1R/CRE-LUC, Cisbio cAMP dynamic 2 kit). Conditions: HEK293/GLP1R/CRE-LUC cells (HD Biosciences); 30 min at 37° C.; 0.5 mM IBMX, 0.1% BSA; geometric mean where n>=2; read-out: GLP1R cAMP Stimulation DR: EC50 (nM) Method 2 (HDB). Format: cell-based. On the procedure: Method 2: Activation of GLP-1 receptor is known to stimulate cyclic AMP (cAMP) production in cells which indicates primary coupling to the Gas subunit of the G protein heterotrimeric complex.
To optimize functional activity directed toward Gas coupling, a HEK293/CRE-Luc cell line developed by HDB stably expressing the GLP-1 Receptor was used. 200× concentration of compound working solutions were prepared (Agilent Technologies Bravo) with ½log serial dilution in 384-well Echo LDV plate (Labcyte, Cat# LP-0200). […] Seal the plate and incubate at 37° C. with 5% CO2 for 30 min.
After incubation the cAMP assay signal was generated using cAMP dynamic 2 Kit (Cisbio). 5 µL cAMP-d2 working solution was added to each well, followed with 5 µL Anti-cAMP antibody-cryptate working solution added to each well using ThermoFisher Multidrop Combi. Incubate at room temperature for 1 hour protected from light.
(§1) %Activity = 100% x (mean RLU of test sample - mean RLU of vehicle control) / (mean RLU of MAX control - mean RLU of vehicle control))
(§2) This is done to account for the lognormal distribution of multiple estimates of EC50 values. In practice geometric mean is calculated by first generating log values of EC50, averaging replicates and then calculating the antilog of the average.

The target of assay [2] is T1, GLP-1 Receptor. The assay is described as follows: GLP-1R agonist cAMP stimulation assay, Method 1 (DiscoverX CHO-K1, enzyme fragment complementation). Format: cell-based. Conditions: CHO-K1 cell line (DiscoverX) stably expressing GLP-1 Receptor; incubation 30 or 60 min at 37° C.; geometric mean where n>=2; read-out: GLP1R cAMP Stimulation DR: EC50 (nM) Method 1. On the procedure:
Activation of GLP-1 receptor is known to stimulate cyclic AMP (cAMP) production in cells which indicates primary coupling to the Gas subunit of the G protein heterotrimeric complex.
Method 1: To optimize functional activity directed toward Gas coupling, a CHO—K1 cell line developed by DiscoverX stably expressing the GLP-1 Receptor was used. Cells expressing GLP-1 receptor were plated in a 384-well microtiter plates and incubated overnight at 37° C. with 5% CO2 to allow the cells to attach and grow. Media was then aspirated from the cells and replaced with 15 uL 2:1 Hanks Balanced Salt Solution (HBSS)/10mM Hepes : cAMP XS+ Ab reagent. Five microliters (5 uL) of previously generated compound sample stocks at 4x final concentration in assay buffer were then added to the cells and allowed to incubate at 37° C. for 30 or 60 minutes.
After incubation the assay signal was generated using enzyme fragment complementation (EFC). In EFC, the enzyme B-galactosidase is split into two complementary portions (EA and ED). The fragment ED is fused to cAMP and in the assay format competes with endogenous cAMP for binding to a cAMP specific antibody. Activated β—Gal is formed when exogenous EA fragment binds to free ED-cAMP (not bound to cAMP specific antibody). Activated enzyme levels are detected through conversion of β-gal chemiluminescent substrate which generates a detectable luminescence signal and read on standard microtiter plate.
The methodology for detection of cAMP using EFC requires incubation with 20uL of cAMP XS+ ED/CL lysis cocktail for one hour followed by incubation with 20 uL cAMP XS+ EA reagent for three hours at room temperature. Microplates were read following signal generation with a PerkinElmer Envision instrument utilizing chemiluminescent signal detection. Compound activity was analyzed using CBIS data analysis suite (ChemInnovation, CA). Percentage activity was calculated using the following formula:
as §1, §2

T1 sequence (P43220 24-463): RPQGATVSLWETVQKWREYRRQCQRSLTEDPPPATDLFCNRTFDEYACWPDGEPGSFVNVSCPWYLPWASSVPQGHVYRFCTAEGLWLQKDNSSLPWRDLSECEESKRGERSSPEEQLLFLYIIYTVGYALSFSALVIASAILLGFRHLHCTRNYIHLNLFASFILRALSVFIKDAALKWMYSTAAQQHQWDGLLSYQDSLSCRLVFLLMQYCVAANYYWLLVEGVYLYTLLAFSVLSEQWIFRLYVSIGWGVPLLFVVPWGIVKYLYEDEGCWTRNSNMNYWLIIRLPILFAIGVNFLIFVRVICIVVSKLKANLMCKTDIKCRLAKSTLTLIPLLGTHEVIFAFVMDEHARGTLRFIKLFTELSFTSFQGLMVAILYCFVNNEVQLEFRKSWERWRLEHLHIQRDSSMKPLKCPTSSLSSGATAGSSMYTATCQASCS

Consider `N#Cc1ccc(COc2cccc(C3=CCC(Cc4nc5ccc(C(=O)O)nc5n4C[C@@H]4CCO4)CC3)n2)c(F)c1` (stereo partly drawn) [Compound 101a, 2-((4-(6-((4-cyano-2-fluorobenzyl)oxy)pyridin-2-yl)cyclohex-3-en-1-yl)methyl)-3-(((S)-oxetan-2-yl)methyl)-3H-imidazo[4,5-b]pyridine-5-carboxylic acid], for which the values for the EC50 on GLP-1 Receptor [1] and on GLP-1 Receptor [2] were 0.019 nM and under 0.051 nM, respectively.

Take `O=C(O)c1ccc2nc(Cc3ccc(-c4nccc(OCc5ccc(Cl)cc5F)n4)cc3)n(C[C@@H]3CCO3)c2n1` [Compound 101aw, (S)-2-(4-(4-((4-chloro-2-fluorobenzyl)oxy)pyrimidin-2-yl)benzyl)-3-(oxetan-2-ylmethyl)-3H-imidazo[4,5-b]pyridine-5-carboxylic acid]: the EC50 – broadly, the concentration that produces a half-maximal response – at GLP-1 Receptor [1] stood at 0.097 nM; at GLP-1 Receptor [2] it was 0.069 nM.

In the case of `O=C(O)c1ccc2nc(CC3CC=C(c4cccc(OCc5ccc(Cl)cc5F)n4)CC3)n(C[C@@H]3CCO3)c2n1` (stereo partly drawn) [Compound 102a, 2-((4-(6-((4-chloro-2-fluorobenzyl)oxy)pyridin-2-yl)cyclohex-3-en-1-yl)methyl)-3-(((S)-oxetan-2-yl)methyl)-3H-imidazo[4,5-b]pyridine-5-carboxylic acid], the figures for the EC50 on GLP-1 Receptor [1] and on GLP-1 Receptor [2] were 0.0096 nM and 0.016 nM, respectively.

`O=C(O)c1ccc2nc(Cc3ccc(-c4nccc(OCc5ccccc5)n4)cc3)n(C[C@@H]3CCO3)c2n1` [Compound 102aw, 2-[[4-(4-benzyloxypyrimidin-2-yl)phenyl]methyl]-3-[[(2S)-oxetan-2-yl]methyl]imidazo[4,5-b]pyridine-5-carboxylic acid]: the EC50 was 1.9 nM at GLP-1 Receptor [1] and 2.2 nM at GLP-1 Receptor [2].

As for `O=C(O)c1ccc2nc(CC3CC=C(c4nccc(OCc5ccc(Cl)cc5F)n4)CC3)n(C[C@@H]3CCO3)c2n1` (stereo partly drawn) [Compound 103a, 2-((4-(4-((4-chloro-2-fluorobenzyl)oxy)pyrimidin-2-yl)cyclohex-3-en-1-yl)methyl)-3-(((S)-oxetan-2-yl)methyl)-3H-imidazo[4,5-b]pyridine-5-carboxylic acid], the figures for the EC50 at GLP-1 Receptor [1] and on GLP-1 Receptor [2] were 0.095 nM and 0.073 nM, respectively.

In the case of `O=C(O)c1ccc2nc(Cn3ccc(-c4cccc(OCc5ccc(Cl)cc5F)n4)cc3=O)n(C[C@@H]3CCO3)c2n1` [Compound 103aw, (S)-2-((6-((4-chloro-2-fluorobenzyl)oxy)-2′-oxo-[2,4′-bipyridin]-1′(2′H)-yl)methyl)-3-(oxetan-2-ylmethyl)-3H-imidazo[4,5-b]pyridine-5-carboxylic acid], the concentration for a half-maximal effect (EC50) on GLP-1 Receptor [1] is 0.89 nM; on GLP-1 Receptor [2] it was 0.38 nM.

Turning to `O=C(O)c1ccc2nc(CC3CC=C(c4ccnc(OCc5ccc(Cl)cc5F)n4)CC3)n(C[C@@H]3CCO3)c2n1` (stereo partly drawn) [Compound 104a, 2-((4-(2-((4-chloro-2-fluorobenzyl)oxy)pyrimidin-4-yl)cyclohex-3-en-1-yl)methyl)-3-(((S)-oxetan-2-yl)methyl)-3H-imidazo[4,5-b]pyridine-5-carboxylic acid], the EC50 is 0.12 nM on GLP-1 Receptor [1] and 0.114 nM on GLP-1 Receptor [2].

Turning to `Cc1cn(Cc2nc3ccc(C(=O)O)nc3n2C[C@@H]2CCO2)c(=O)cc1-c1cccc(OCc2ccc(Cl)cc2F)n1` [Compound 104aw, (S)-2-((6-((4-chloro-2-fluorobenzyl)oxy)-5′-methyl-2′-oxo-[2,4′-bipyridin]-1′(2′H)-yl)methyl)-3-(oxetan-2-ylmethyl)-3H-imidazo[4,5-b]pyridine-5-carboxylic acid], the EC50 was 0.13 nM at GLP-1 Receptor [1] and 0.17 nM at GLP-1 Receptor [2].

For `N#Cc1ccc(COc2nccc(C3=CCC(Cc4nc5ccc(C(=O)O)nc5n4C[C@@H]4CCO4)CC3)n2)c(F)c1` (stereo partly drawn) [Compound 105a, 2-((4-(2-((4-cyano-2-fluorobenzyl)oxy)pyrimidin-4-yl)cyclohex-3-en-1-yl)methyl)-3-(((S)-oxetan-2-yl)methyl)-3H-imidazo[4,5-b]pyridine-5-carboxylic acid], the EC50 was 0.089 nM on GLP-1 Receptor [1] and 0.12 nM on GLP-1 Receptor [2].

In the case of `Cc1c(-c2cccc(OCc3ccc(Cl)cc3F)n2)ccn(Cc2nc3ccc(C(=O)O)nc3n2C[C@@H]2CCO2)c1=O` [Compound 105aw, (S)-2-((6-((4-chloro-2-fluorobenzyl)oxy)-3′-methyl-2′-oxo-[2,4′-bipyridin]-1′(2′H)-yl)methyl)-3-(oxetan-2-ylmethyl)-3H-imidazo[4,5-b]pyridine-5-carboxylic acid], the EC50 at GLP-1 Receptor [1] came out at 7.1 nM; at GLP-1 Receptor [2] it was 11 nM.

Consider `N#Cc1ccc(COc2cccc(-c3ccn(Cc4nc5ccc(C(=O)O)nc5n4C[C@@H]4CCO4)c(=O)c3)n2)c(F)c1` [Compound 106aw, (S)-2-((6-((4-cyano-2-fluorobenzyl)oxy)-2′-oxo-[2,4′-bipyridin] -1′(2′H)-yl)methyl)-3-(oxetan-2-ylmethyl)-3H-imidazo[4,5-b]pyridine-5-carboxylic acid], for which the EC50 amounted to 4.1 nM at GLP-1 Receptor [1] and 1.3 nM on GLP-1 Receptor [2].

Regarding `O=C(O)c1ccc2nc(Cn3ccc(-c4cccc(OCc5ccc(Cl)cc5F)n4)cc3=O)n(C[C@@H]3CCO3)c2c1` [Compound 107aw, 2-[[4-[6-[(4-chloro-2-fluorophenyl)methoxy]-2-pyridyl]-2-oxo-1-pyridyl]methyl]-3-[[(2S)-oxetan-2-yl]methyl]benzimidazole-5-carboxylic acid], the EC50 on GLP-1 Receptor [1] was 0.19 nM; on GLP-1 Receptor [2], 0.28 nM.

For the compound `O=C(O)c1ccc2nc(Cn3ccc(-c4cccc(OCc5ccc(Cl)cc5F)c4)cc3=O)n(C[C@@H]3CCO3)c2n1` [Compound 108aw, 2-[[4-[3-[(4-chloro-2-fluoro-phenyl)methoxy]phenyl]-2-oxo-1-pyridyl]methyl]-3-[[(2S)-oxetan-2-yl]methyl]-imidazo[4,5-b]pyridine-5-carboxylic acid], the EC50 is 5.7 nM on GLP-1 Receptor [1] and 5.9 nM on GLP-1 Receptor [2].

Turning to `O=C(O)c1ccc2nc(COc3cc(-c4cccc(OCc5ccc(Cl)cc5F)n4)c(F)cn3)n(C[C@@H]3CCO3)c2n1` [Compound 109aw, (S)-2-(((6-((4-chloro-2-fluorobenzyl)oxy)-5′-fluoro-[2,4′-bipyridin]-2′-yl)oxy)methyl)-3-(oxetan-2-ylmethyl)-3H-imidazo[4,5-b]pyridine-5-carboxylic acid], the figures for the EC50 at GLP-1 Receptor [1] and at GLP-1 Receptor [2] were 10 nM and 4.8 nM, respectively.

On to `O=C(O)c1ccc2nc(CN3CC=C(c4cccc(OCc5ccc(Cl)cc5F)n4)CC3)n(C[C@@H]3CCO3)c2n1` [Compound 110a, (S)-2-((6-((4-chloro-2-fluorobenzyl)oxy)-3′,6′-dihydro-[2,4′-bipyridin]-1′(2′H)-yl)methyl)-3-(oxetan-2-ylmethyl)-3H-imidazo[4,5-b]pyridine-5-carboxylic acid], for which the EC50 at GLP-1 Receptor [1] was 0.0074 nM; at GLP-1 Receptor [2], under 0.051 nM.

Regarding `O=C(O)c1ccc2nc(COc3cc(-c4cccc(OCc5ccc(Cl)cc5F)c4)ccn3)n(C[C@@H]3CCO3)c2n1` [Compound 110aw, 2-[[4-[3-[(4-chloro-2-fluoro-phenyl)methoxy]phenyl]-2-pyridyl]oxymethyl]-3-[[(2S)-oxetan-2-yl]methyl]imidazo[4,5-b]pyridine-5-carboxylic acid], the EC50 at GLP-1 Receptor [1] was 88 nM; on GLP-1 Receptor [2] it was 43 nM.

On to `O=C(O)c1ccc2nc(CN3CC=C(c4csc(OCc5ccc(Cl)cc5F)n4)CC3)n(C[C@@H]3CCO3)c2n1` [Compound 111a], for which the concentration giving a half-maximal response (EC50) on GLP-1 Receptor [1] turned out to be 0.073 nM; on GLP-1 Receptor [2], 0.18 nM.

Take `N#Cc1ccc(COc2nc(C3=CCN(Cc4nc5ccc(C(=O)O)nc5n4C[C@@H]4CCO4)CC3)cs2)c(F)c1` [Compound 112a, (S)-2-((4-(2-((4-cyano-2-fluorobenzyl)oxy)thiazol-4-yl)-3,6-dihydropyridin-1 (2H)-yl)methyl)-3-(oxetan-2-ylmethyl)-3H-imidazo[4,5-b]pyridine-5-carboxylic acid]: the values for the EC50 on GLP-1 Receptor [1] and on GLP-1 Receptor [2] were 0.17 nM and 0.26 nM, respectively.
